Measured values as given in PubChem BioAssay AID1996.
In brackets after ≈: the same amount, converted by molar mass.

Conditions: buffer; pH 7.4; 200.0 µM

Structure (SMILES)	solubility kinetic [µg/mL]
O=C(NCc1ccncc1)C(=O)Nc1nccs1	> 39.3
O=c1cc(C(F)(F)F)nc(SC/C=C/c2ccccc2)[nH]1	> 46.8
COc1ccc(NC(=O)c2cc(-c3ccco3)on2)c(OC)c1	0.8 (≈ 2.55 µM)
CN(Cc1ccco1)S(=O)(=O)c1csc(C(N)=O)c1	44.7 (≈ 149 µM)
CC(=O)NC(C)C(=O)OCC(=O)c1ccc(-c2ccccc2)cc1 (stereo unspecified)	21.9 (≈ 67.3 µM)
Cc1[nH]c2c(Cl)cccc2c(=O)c1CN1CCCCCC1	> 45.7
O=C(c1cc([N+](=O)[O-])[nH]n1)N1CCSCC1	> 36.3
COc1ccc(Nc2ncnc3sc(C)cc23)cc1.Cl	14.8
COc1cc(/C=C2/C(=O)ON=C2C)cc(Cl)c1O	> 40.2
O=C(NC(=O)N1CCCc2ccccc21)c1ccccc1	30.2 (≈ 108 µM)
CC1CCCN(C(=O)C2CC(=O)N(c3ccc(Cl)cc3)C2)C1 (stereo unspecified)	> 48.1
COc1cc2c(cc1OC)C(c1ccccc1O)NCC2 (stereo unspecified)	37.3 (≈ 131 µM)
CN(C)/C=N/S(=O)(=O)c1ccc(Cl)cc1	35.8 (≈ 145 µM)
O=C(O)c1cccnc1SC1CC(=O)N(c2ccccc2)C1=O (stereo unspecified)	> 49.3
CCc1nc(SCC(=O)NC2CC2)c2c(C)c(C)sc2n1	2.5 (≈ 7.78 µM)
COCCN(C(=S)Nc1c(C)cccc1C)C(C)c1ccco1 (stereo unspecified)	47.1 (≈ 142 µM)
N#Cc1c(N)n(-c2ccc(O)cc2)c2nc3ccccc3nc12	1.2 (≈ 3.98 µM)
COc1ccc(Cl)cc1S(=O)(=O)NCCCn1ccnc1	48.6 (≈ 147 µM)
CC(=O)Oc1cccc(Nc2ncnc3ccccc23)c1	> 41.9
O=Cc1c(Nc2ccccc2Cl)nc2ccccn2c1=O	< 0.2
O=C(NC1CCN(Cc2ccc(F)cc2)CC1)c1ccccc1	40.7 (≈ 130 µM)

Structure (SMILES)	solubility kinetic [µg/mL]
CCOC(=O)c1nc(Nc2ccccc2C)c2ccccc2n1	> 46.1
O=C1NC(=O)/C(=C/c2cccc3ccccc23)S1	> 38.3
CCN(Cc1ccncc1)C(=O)c1ccc2c(c1)S(=O)(=O)c1ccccc1C2=O	42 (≈ 103 µM)
COc1ccc(C(=O)NC(C)c2ccc(-n3ccnc3)cc2)c(OC)c1 (stereo unspecified)	> 52.7
CCN1CCN(c2ccc(NC(=O)c3ccco3)cc2)CC1	40.2 (≈ 134 µM)
Cn1ccnc1Sc1ccc(C(N)=O)cc1[N+](=O)[O-]	38.7 (≈ 139 µM)
Brc1ccccc1CN1CCC(Cc2ccccc2)CC1	2.6 (≈ 7.55 µM)
C/C=C/C(=O)OCC(=O)Nc1ccc(OC)c(OC)c1	> 41.9
CCC(C)[C@H](NC(=O)N1CCCCCC1)C(=O)OC (stereo partly specified)	1.2 (≈ 4.44 µM)
O=c1[nH]cc(N2CCCCCC2)c(=O)[nH]1	> 31.4
CCCS(=O)(=O)c1cscc1NC(=O)c1c(-c2c(F)cccc2Cl)noc1C	0.9 (≈ 2.03 µM)
CCOc1ccc(S(=O)(=O)N2CCN(c3ccccn3)CC2)cc1	1.6 (≈ 4.61 µM)
CCOC(=O)C1=C(C)NC2=C(C(=O)c3ccccc32)C1c1ccc([N+](=O)[O-])o1 (stereo unspecified)	7.4 (≈ 19.5 µM)
CC1CCCC(NC(=O)C2CC(=O)N(Cc3ccccc3)C2)C1C (stereo unspecified)	37.4 (≈ 114 µM)
CC(=O)Nc1ccc(C(=O)/C=C/c2ccc[nH]2)cc1	2.9 (≈ 11.4 µM)
Cc1onc(-c2c(F)cccc2Cl)c1C(=O)NCc1ccccc1	49.7 (≈ 144 µM)
Cn1cccc1C(=O)OCC(=O)NCCCc1ccccc1	> 45.1
C1=C(c2ccccc2)CCNC1.Cl	24.9
COc1ccc(C2=COc3ccccc3C(=O)N2)cc1	11.4 (≈ 42.7 µM)
O=C(O)C1CSC(c2ccc(O)c([N+](=O)[O-])c2)N1 (stereo unspecified)	> 40.5
Cc1cc(C=C2C(=O)NC(=O)NC2=O)c(C)n1-c1ccncc1	> 46.5

Structure (SMILES)	solubility kinetic [µg/mL]
O=C(CSc1ccccc1F)NC(=O)c1ccc(Cl)cc1	8.5 (≈ 26.3 µM)
O=C1CN(c2ccc(F)cc2)C(=S)N1c1ccccc1	8.5 (≈ 29.7 µM)
O=C(c1cccs1)N1CCN(c2ncc(Br)cn2)CC1	9.5 (≈ 26.9 µM)
CNC(=O)COc1ccc(S(=O)(=O)Nc2ccc(C)cc2)cc1	> 50.2
O=C(Nc1cccc(F)c1)Nc1ccc2c(c1)C(=O)OC2	< 0.3
CC1=CC(=C(C#N)C#N)C=C(C)N1CCC(C)C	1.7 (≈ 7.04 µM)
CS(=O)(=O)NCCNc1ccc(C(F)(F)F)cc1[N+](=O)[O-]	30.3 (≈ 92.6 µM)
COc1ccc(S(=O)(=O)N2CCCc3ccccc32)cc1OC	28.4 (≈ 85.2 µM)
CCCC(=O)NC(=S)c1c(C)n(C)n(-c2ccccc2)c1=O	> 47.6
CC(C)(C)N(Cc1ccccc1)C(=O)COC(=O)C1CC1	> 43.4
Cc1c(C(=O)NCCCn2ccnc2)oc2ccccc12	34.1 (≈ 120 µM)
COc1ccc(CNC(=O)CCn2c(C)csc2=O)cc1	> 46
CCC(C)c1ccc(NC(=S)NCc2ccccn2)cc1 (stereo unspecified)	38.5 (≈ 129 µM)
O=C(CSc1ncn[nH]1)NCCc1ccc(Cl)cc1	> 44.5
CCOC(=O)c1csc(NC(=O)c2ccc(OCC)cc2)n1	0.8 (≈ 2.5 µM)
CCOc1ccc(C(C)=O)cc1CN1C(=O)NC(C)(C2CC2)C1=O (stereo unspecified)	41.3 (≈ 125 µM)
COc1ccc(C(=O)NCCCNC(=O)c2cc3ccccc3[nH]2)cc1OC	> 57.2
Cc1ccc(S(=O)(=O)NCCc2nc3ccccc3[nH]2)cc1	36.3 (≈ 115 µM)
Clc1ccccc1Nc1nc2ccccc2o1	2.3 (≈ 9.4 µM)
